The assay concerns SD rat adjuvant arthritis (AA) model. In words: SD rat adjuvant arthritis (AA) model, arthritis index. The class given is in vivo. On the procedure: In this example, SD rat adjuvant arthritis (AA) model (purchased from the Experimental Animal Center of Anhui Province) was used. PCI-32765 and methotrexate (MTX) were used as positive control (both purchased from Shanghai Chemexpress). The therapeutic effect of Compound 1 on AA rats was studied via the combination of in vivo and in vitro administration. 10 mg/nal of complete Freund's adjuvant (CFA, purchased from Shanghai Chemexpress) was mixed well, and 0.1 ml of CFA was intracutaneously injected into each rat at right posterior plantar to induce inflammation. The normal group was injected with saline via the same method. On the 17th day, the successful modeling male SD rats were randomly divided into 7 groups with 10 rats in each group, namely the model group, the small/medium/large dose of Compound 1 group (12.5, 25, 50 mg/kg/per administration, intraperitoneal injection, one administration per day for 16 days), the Compound 19 group (25 mg/kg/per administration, intraperitoneal injection, one administration per day for 16 days), the positive control PCI-32765 group (25 mg/kg/per administration, intraperitoneal injection, one administration per day for 16 days), the MTX group (0.5 mg/kg, intragastrical, one administration every 3 days, totally 6 times). The rats in the model group were intraperitoneally injected with the same amount of DMSO solution.

Structures are written as SMILES.

Turning to `CN(Cc1cnc2nc(N)nc(N)c2n1)c1ccc(C(=O)N[C@@H](CCC(=O)O)C(=O)O)cc1` [MTX, methotrexate, reference compound], the “effect on arthritis index of rats compared with the model group” value (0.5 mg/kg intragastrical every 3 days, starting from day 21) is given as “significantly reduced”.

As to `C=CC(=O)N1CCC[C@@H](n2nc(-c3ccc(Oc4ccccc4)cc3)c3c(N)ncnc32)C1` [PCI-32765, reference compound], the “effect on arthritis index of rats” value (25 mg/kg intraperitoneal once per day, starting from day 24) is given as “significantly reduce”.

Source of the values: patent US9814709B2, “Bruton's tyrosine kinase inhibitor” (HEFEI INSTITUTES OF PHYSICAL SCIENCE, CHINESE ACADEMY OF …, priority 2014, dated 2017).
